In paper PMC8421406, “C9orf72-derived arginine-rich poly-dipeptides impede phase modifiers” (Nature Communications, 2021):
Where no end group is shown, it is not given here. HA = HA epitope tag

What was measured:
Assay type in all cases: biochemical
[1] = tested on: GFP:cNLS:TDP43-LC / mCh:TDP43-LC hydrogel; experiment: Hydrogel binding assay, TDP43-LC with Impα/β1; conditions: 1.0 µM GFP:cNLS:TDP43-LC, Impα/β1 1.0 µM/1.0 µM, PR20 1.0 µM
Text: (§1) Expression plasmids for recombinant proteins (GFP/mCherry fusion LC-domain of FUS (residue 2–214, GFP/mCh:FUS-LC) and GFP/mCherry fusion LC-domain of hnRNPA2 (residue 181–341, GFP/mCh:hnRNPA2-LC)) were obtained from the Steven L. McKnight Laboratory. Expression plasmid for GFP:FUS-LC fusion NLS (residue 501–526, GFP:FUS-LC:NLS), mCh fusion LC-domain of TDP43 (residue 262–414, mCh:TDP43-LC), and GFP-tagged cNLS (residue 78–99) fusion TDP43-LC (GFP:cNLS:TDP43-LC) were constructed using In-Fusion HD Cloning Kit (Takara Bio, Inc.). GFP/mCh:FUS-LC, GFP:FUS-LC:NLS, and GFP/mCh:hnRNPA2-LC were expressed in E. coli BL21(DE3) cells with 0.5 mM IPTG at 20 °C overnight and purified by Ni-NTA Agarose (FUJIFILM Wako Pure Chemical Corporation), as described in a previous study. GFP:cNLS:TDP43-LC were expressed with 1.0 mM IPTG at 37 °C for 3 h and mCh:TDP43-LC were expressed with 0.5 mM IPTG at 16 °C overnight. GFP:cNLS:TDP43-LC and mCh:TDP43-LC were purified by Ni-NTA as described in a previous study[48] with some modifications. […] Relative intensity of GFP signals across the hydrogel droplets were measured in triplicate by using the profile plot mode in ImageJ. […]

[2] = tested on: GFP:hnRNPA2-LC / mCh:hnRNPA2-LC hydrogel; experiment: Hydrogel binding assay, hnRNPA2-LC; conditions: 1.0 µM GFP:hnRNPA2-LC, Kapβ2 1.0 µM, PR20 1.0 µM
Text: as §1

[3] = tested on: MBP:FUS (full-length FUS droplets) / Kapβ2; experiment: Turbidity assay of FUS droplet formation (OD 395 nm); conditions: equimolar poly-dipeptide and Kapβ2 (8 μM)
[4] = tested on: GFP:FUS-LC:NLS / mCh:FUS-LC hydrogel; experiment: Hydrogel binding assay, GFP:FUS-LC:NLS on mCh:FUS-LC hydrogel; conditions: Kapβ2 0.1-1.0 µM; PR20 with 1.0 µM Kapβ2
Procedure: The experiment was independently repeated three times with similar results. Here, 10 μm scale bars are shown in the image. e Graphical description of hydrogel binding assay. Hydrogels of mCh:LC-domain accumulate GFP:LC-domain as it co-polymerizes. f Hydrogel binding assay for FUS-LC in the absence and presence of Kapβ2. mCh:FUS-LC (lower images) were incubated with 1.0 µM of GFP (left panel) or 1.0 µM of GFP:FUS-LC:NLS (right panel) in the presence of different concentrations of Kapβ2 (left to right: 0.1, 0.3, and 1.0 µM). g Quantitative analysis of Fig. 1f. Relative intensity of GFP signals is shown as the mean of three independent experiments ± SD, analyzed by one-way ANOVA followed by Dunnett’s multiple comparison test (**P < 0.01, ***P < 0.001). h Hydrogel binding assay for FUS-LC in the absence and presence of Kapβ2 and/or PR20. Hydrogel droplets of mCh:FUS-LC (lower images) were incubated with 1.0 µM of GFP (left panel) or GFP:FUS-LC:NLS (right panel). GFP:FUS-LC:NLS containing Kapβ2 (1.0 µM) was challenged for homotypic polymer extension in the absence or presence of different concentration of PR20. i Quantitative analysis of Fig. 1h. Relative intensity of GFP signals is shown as the mean of three independent experiments ± SD, analyzed by one-way ANOVA followed by Dunnett’s multiple comparison test (**P < 0.01). Source data are provided as a Source Data file. […]

Substance: PR20: twenty repeats of proline:arginine with an HA epitope tag at the C terminus, synthesized by SCRUM, Inc. (PRPRPRPRPRPRPRPRPRPRPRPRPRPRPRPRPRPRPRPR-{HA})
- Effect on ability of Impα/β1 to modify phase transition of TDP43-LC [1]: inhibited the ability of other NIRs Impα/β1 in modifying the phase transition of LC-domain of TDP43
- Effect on ability of Kapβ2 to block hydrogel binding of hnRNPA2-LC [2]: inhibited the ability of Kapβ2
- Inhibition of the ability of Kapβ2 to melt FUS droplets (turbidity) [3]: inhibited the ability of Kapβ2
- Effect on hydrogel binding of GFP:FUS-LC:NLS [4]: inhibited the ability of Kapβ2 from blocking the hydrogel binding of GFP:FUS-LC:NLS
